Series [1] concerns the target Histone deacetylase 2 (Homo sapiens, UniProt Q92769). The series can be described thus: Inhibition of recombinant human full length HDAC2 using Boc-Lys (Ac)-AMC as substrate incubated for 120 mins by fluorescence analysis.
Series [2] deals with T1, Histone deacetylase 7 (Homo sapiens, UniProt Q8WUI4).
T1 sequence (Q8WUI4 whole entry): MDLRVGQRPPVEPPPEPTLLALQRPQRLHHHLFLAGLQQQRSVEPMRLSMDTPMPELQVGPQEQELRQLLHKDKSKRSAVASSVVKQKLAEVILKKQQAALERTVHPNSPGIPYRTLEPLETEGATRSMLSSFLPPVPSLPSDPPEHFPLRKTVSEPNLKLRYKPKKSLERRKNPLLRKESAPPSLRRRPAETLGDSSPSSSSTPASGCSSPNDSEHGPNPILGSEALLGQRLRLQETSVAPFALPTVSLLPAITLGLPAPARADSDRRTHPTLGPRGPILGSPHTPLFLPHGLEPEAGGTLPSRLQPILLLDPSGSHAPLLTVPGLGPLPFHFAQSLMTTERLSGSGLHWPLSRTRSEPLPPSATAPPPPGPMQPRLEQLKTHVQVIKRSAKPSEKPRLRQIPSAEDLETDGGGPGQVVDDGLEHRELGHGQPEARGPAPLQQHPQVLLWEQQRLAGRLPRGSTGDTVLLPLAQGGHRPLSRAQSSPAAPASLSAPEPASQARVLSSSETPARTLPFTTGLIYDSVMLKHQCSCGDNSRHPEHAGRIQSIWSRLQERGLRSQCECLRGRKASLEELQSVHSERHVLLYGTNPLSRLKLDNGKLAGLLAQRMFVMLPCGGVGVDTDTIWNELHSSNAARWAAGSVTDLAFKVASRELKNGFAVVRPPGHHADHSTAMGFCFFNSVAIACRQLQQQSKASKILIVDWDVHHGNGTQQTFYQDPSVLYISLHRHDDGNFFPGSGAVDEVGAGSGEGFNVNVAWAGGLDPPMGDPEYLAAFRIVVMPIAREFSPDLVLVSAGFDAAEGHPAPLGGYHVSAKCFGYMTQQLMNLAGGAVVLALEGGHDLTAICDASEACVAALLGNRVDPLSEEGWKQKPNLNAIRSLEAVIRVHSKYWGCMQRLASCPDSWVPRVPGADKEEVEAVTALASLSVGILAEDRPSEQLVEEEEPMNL
The series can be described thus: Inhibition of N-terminal GST-tagged recombinant human HDAC7 (518 to end residues) expressed in baculovirus expression system using Boc-Lys (Tfa)-AMC as substrate incubated for 120 mins by fluorescence analysis.

Series [3] can be described thus: Cytotoxicity against HELF cells assessed as reduction in viability at 2.5 to 10 uM after 48 hrs by MTT assay. The series is classed as toxicity, cell-based. The note with it: human, dose 2.5-10 µM.
The target of series [4] is T2, TGF-beta receptor type-1 (Homo sapiens) (UniProt P36897).
T2 sequence (whole entry): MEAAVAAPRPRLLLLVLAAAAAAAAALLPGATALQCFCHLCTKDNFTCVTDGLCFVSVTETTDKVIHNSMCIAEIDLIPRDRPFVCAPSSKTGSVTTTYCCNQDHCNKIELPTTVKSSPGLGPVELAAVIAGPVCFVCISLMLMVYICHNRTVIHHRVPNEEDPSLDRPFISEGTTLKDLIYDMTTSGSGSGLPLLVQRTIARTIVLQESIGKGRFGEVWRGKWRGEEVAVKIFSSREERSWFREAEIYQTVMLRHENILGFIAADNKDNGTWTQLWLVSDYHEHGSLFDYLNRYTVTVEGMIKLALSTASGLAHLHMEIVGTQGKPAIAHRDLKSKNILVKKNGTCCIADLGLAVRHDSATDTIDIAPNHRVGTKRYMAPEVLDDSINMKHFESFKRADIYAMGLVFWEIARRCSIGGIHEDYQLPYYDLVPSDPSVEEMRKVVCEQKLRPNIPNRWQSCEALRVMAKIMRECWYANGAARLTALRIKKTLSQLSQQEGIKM
As to the kind of experiment: Inhibition of TGF-beta1-induced TGFbetaR1 protein phosphorylation level in HELF cells incubated for 48 hrs by Western blot analysis. The conditions noted are these: dose 2.5-10 µM. The series is classed as cell-based. For orientation: Immunoblotting shows a protein as a band on a membrane.

Series [5] can be described thus: Half life in human plasma at 2 uM by LC-MS/MS analysis. The series is classed as ADME, cell-free.
A short description of series [6]: Half life in human liver microsomes at 100 uM by LC-MS/MS analysis. Type of series: ADME, Microsome.
Series [7] is described as follows: Intrinsic clearance in human liver at 100 uM incubated upto 60 mins by LC-MS/MS analysis. The series is classed as ADME, tissue-based. The conditions noted are these: read-out: CLH.
A short description of series [8]: Stability of compound in human liver microsomes assessed as remaining parent compound at 100 uM incubated after 60 mins by LC-MS/MS analysis. Type of series: ADME, Microsome. The note with it: read-out: Stability. (In general: Liver microsomes are a subcellular fraction often used to study metabolism.)
Series [9] deals with Mus musculus. The series can be described thus: Anti-pulmonary fibrosis activity in bleomycin-induced C57BL/6 mouse model of pulmonary fibrosis assessed as inhibition of HDAC activity in lung at 50 to 100 mg/kg, ip for 3 weeks by fluorescence based microplate reader analysis. Type of series: functional, organism-based. The conditions noted are these: dose 50-100 mg/kg.
The test system of series [10] is Mus musculus. As to the kind of experiment: Anti-pulmonary fibrosis activity in bleomycin-induced C57BL/6 mouse model of pulmonary fibrosis assessed as decrease structural damage in lung at 50 to 100 mg/kg, ip for 3 weeks by H and E staining based fluorescence microscopic analysis. Type of series: functional, organism-based. The note with it: dose 50-100 mg/kg.
For series [11], the system named is Mus musculus. As to the kind of experiment: Anti-pulmonary fibrosis activity in bleomycin-induced C57BL/6 mouse model of pulmonary fibrosis assessed as decrease in collapse of the alveolar cavity in lung at 50 to 100 mg/kg, ip for 3 weeks by H and E staining based fluorescence microscopic analysis. Type of series: functional, organism-based. The conditions noted are these: dose 50-100 mg/kg.

Series [12] relates to Mus musculus. As to the kind of experiment: Anti-pulmonary fibrosis activity in bleomycin-induced C57BL/6 mouse model of pulmonary fibrosis assessed as decrease in inflammatory cell infiltration in lung at 50 to 100 mg/kg, ip for 3 weeks by H and E staining based fluorescence microscopic analysis. The series is classed as functional, organism-based. The note with it: dose 50-100 mg/kg.

Series [13] has as its system Mus musculus. The series can be described thus: Anti-pulmonary fibrosis activity in bleomycin-induced C57BL/6 mouse model of pulmonary fibrosis assessed as decrease in fibrosis scars in lung at 50 to 100 mg/kg, ip for 3 weeks by H and E staining based fluorescence microscopic analysis. The series is classed as functional, organism-based. The conditions noted are these: dose 50-100 mg/kg.

Series [14] concerns Mus musculus. The series can be described thus: Anti-pulmonary fibrosis activity in bleomycin-induced C57BL/6 mouse model of pulmonary fibrosis assessed as decrease in thickening of the alveolar wall in lung at 50 to 100 mg/kg, ip for 3 weeks by Masson trichrome staining based microscopic analysis. Type of series: functional, organism-based. The note with it: dose 50-100 mg/kg.

Series [15] concerns Mus musculus. As to the kind of experiment: Anti-pulmonary fibrosis activity in bleomycin-induced C57BL/6 mouse model of pulmonary fibrosis assessed as decrease in collagen fiber deposition in lung at 50 to 100 mg/kg, ip for 3 weeks by Masson trichrome staining based microscopic analysis. Type of series: functional, organism-based. The conditions noted are these: dose 50-100 mg/kg.

Series [16] deals with Mus musculus. As to the kind of experiment: Anti-pulmonary fibrosis activity in bleomycin-induced ip dosed C57BL/6 mouse model of pulmonary fibrosis assessed as inhibition of alpha-SMA protein expression level in lung for 3 weeks by immunohistochemical analysis. Type of series: functional, organism-based. The conditions noted are these: dose 50-100 mg/kg.
Series [17] has as its system Mus musculus. The series can be described thus: Anti-pulmonary fibrosis activity in bleomycin-induced ip dosed C57BL/6 mouse model of pulmonary fibrosis assessed as inhibition of Smad2 protein phosphorylation level in lung for 3 weeks by immunohistochemical analysis. Type of series: functional, organism-based. The conditions noted are these: dose 50-100 mg/kg.

SMILES strings stand for the structures. pIC50: −log10 of the molar value. Activity calls are given as the source filed them.

Consider 1 compound from ChEMBL document CHEMBL5584244, “Discovery of novel pyrrolo[2,1-c][1,4]benzodiazepine-3,11-dione (PBD) derivatives as selective HDAC6 inhibitors for the efficient treatment of idiopathic pulmonary fibrosis (IPF) in vitro and in vivo” (Eur J Med Chem, 2024).

Usually pIC50 stands for −log10 of the IC50, conventionally taken in molar units. The term half-life denotes the time needed for the level to fall by half in the phase considered. Low values mean rapid decline, high ones slow decline.

Histone deacetylase 2, sequence (Q92769 whole entry): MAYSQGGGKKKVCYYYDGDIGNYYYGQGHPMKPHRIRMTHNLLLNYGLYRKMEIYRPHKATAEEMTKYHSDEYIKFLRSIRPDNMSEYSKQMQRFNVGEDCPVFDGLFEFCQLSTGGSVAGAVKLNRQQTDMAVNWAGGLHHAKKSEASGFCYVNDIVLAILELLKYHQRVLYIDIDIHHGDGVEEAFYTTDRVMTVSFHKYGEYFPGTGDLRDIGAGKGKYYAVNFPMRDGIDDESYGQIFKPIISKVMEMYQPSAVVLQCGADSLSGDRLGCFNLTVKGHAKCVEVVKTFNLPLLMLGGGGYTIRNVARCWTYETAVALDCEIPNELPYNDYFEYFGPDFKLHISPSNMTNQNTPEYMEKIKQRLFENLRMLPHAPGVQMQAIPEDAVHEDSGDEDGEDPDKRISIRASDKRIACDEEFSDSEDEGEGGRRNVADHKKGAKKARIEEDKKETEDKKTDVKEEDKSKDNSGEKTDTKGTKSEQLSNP

On to `CC(=O)O.O=C(NO)c1ccc(CN2C(=O)[C@@H]3CCCN3Cc3ccccc32)cc1`, for which the values for the pIC50 in [1] and in series [2] were 5.50 and 8.05, respectively. Further, the Activity entry in series [3] is “Non-Toxic”. For the same compound, the inhibition result in series [4], in series [16] and in series [17] was “Dose-Dependent Effect” throughout. This compound also came in with a half-life at 2 µM in series [5] greater than 4.82 h. For the same compound, the half-life at 100 µM in series [6] is greater than 2.42 h. Also, the CLint scaled at 100 µM in series [7] was less than 8.6 mL/min/kg. Also, in [8], the remaining at 1 h, 100 µM was determined as 77.4%. Further, the inhibition entry in series [9] was “Active”. The outcome in [10], in series [11], in series [12], in series [13] and in series [15] was Active. Further, the result in series [14] was inactive.
